The results in this text go back to US10093713B2, “GIP-GLP-1 dual agonist compounds and methods” (priority 2013, dated 2018).

For assay [1], the target named is T1, human GIP R (Homo sapiens, UniProt P48546).
T1 construct: expressed in transfected cells
T1 sequence (P48546 22-466): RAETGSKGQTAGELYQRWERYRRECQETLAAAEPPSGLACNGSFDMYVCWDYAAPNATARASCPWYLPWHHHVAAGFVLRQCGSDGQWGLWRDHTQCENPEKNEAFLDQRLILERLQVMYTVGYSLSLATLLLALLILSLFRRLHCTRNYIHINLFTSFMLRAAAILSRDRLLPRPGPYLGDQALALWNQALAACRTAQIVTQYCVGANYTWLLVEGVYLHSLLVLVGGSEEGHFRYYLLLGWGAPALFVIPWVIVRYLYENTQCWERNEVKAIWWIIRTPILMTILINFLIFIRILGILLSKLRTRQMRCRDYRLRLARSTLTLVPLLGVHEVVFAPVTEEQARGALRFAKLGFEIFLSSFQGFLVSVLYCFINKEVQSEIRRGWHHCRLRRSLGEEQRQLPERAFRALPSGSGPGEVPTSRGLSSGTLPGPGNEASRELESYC
The assay can be described thus: Human GIP receptor (GIP R) activity assay, cAMP induction (AlphaScreen) in HEK293 cells. It counts as cell-based. As to conditions: Table 3; most comprehensive data; read-out: hGIP-R cAMP EC50 average value. An outline of the steps:
(§1)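 Stable HEK293 clones expressing human GIP R or GLP-1 R, seeded 1 day before; cells washed in Tyrode's buffer (10 mM HEPES, pH 7.4), stimulated, then lysed. cAMP measured by AlphaScreen bead competition (1 h, room temperature, dark). EC50 = concentration giving half-maximal cAMP elevation, from curves of absolute cAMP (nM) vs log concentration.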
For orientation: Alpha assays give light when donor and acceptor beads are brought close together.

Assay [2] concerns the target T2, human GLP-1 R (Homo sapiens, UniProt P43220).
T2 construct: expressed in transfected cells
The assay can be described thus: Human GLP-1 receptor (GLP-1 R) activity assay, cAMP induction (AlphaScreen) in HEK293 cells. It counts as cell-based. As to conditions: Table 3; most comprehensive data; read-out: hGLP-1-R cAMP EC50 average value. In short, it runs like this: as §1

*1 amine or outer side, *2 acyl side, *3 side chain or, on linkers, in order; H or OH if unused. Where a SMILES comes first, the peptide text is derived from it. Side-chain parts run from the residue outwards. [ ]: non-standard residue; d: D form. The star is where a group is joined. C20 diacid = O=C(O)CCCCCCCCCCCCCCCCCCC(=O)*; γGlu = O=C(O)[C@H](CCC(=O)[*:2])N[*:1]; AEEA = NCCOCCOCC(=O)O; Aib = CC(C)(N)C(=O)O

T2 sequence (P43220 24-463): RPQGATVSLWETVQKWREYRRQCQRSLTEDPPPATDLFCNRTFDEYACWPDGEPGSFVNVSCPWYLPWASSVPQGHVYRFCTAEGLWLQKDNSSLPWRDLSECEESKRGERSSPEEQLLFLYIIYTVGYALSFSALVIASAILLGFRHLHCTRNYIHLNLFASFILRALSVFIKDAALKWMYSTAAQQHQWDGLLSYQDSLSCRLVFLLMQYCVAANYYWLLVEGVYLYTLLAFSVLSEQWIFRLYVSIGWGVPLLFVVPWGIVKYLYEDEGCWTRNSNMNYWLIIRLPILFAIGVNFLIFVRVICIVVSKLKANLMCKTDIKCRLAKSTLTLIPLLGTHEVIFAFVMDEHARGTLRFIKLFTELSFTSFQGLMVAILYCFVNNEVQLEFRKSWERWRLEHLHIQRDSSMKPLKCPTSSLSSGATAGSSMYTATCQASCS

As a reminder, the EC50 is the concentration giving half of the maximal effect. With `CC[C@H](C)[C@H](NC(=O)[C@H](CO)NC(=O)[C@H](Cc1ccc(O)cc1)NC(=O)[C@H](CC(=O)O)NC(=O)[C@H](CO)NC(=O)[C@@H](NC(=O)[C@H](Cc1ccccc1)NC(=O)[C@@H](NC(=O)CNC(=O)[C@H](CCC(=O)O)NC(=O)C(C)(C)NC(=O)[C@@H](N)Cc1ccc(O)cc1)[C@@H](C)O)[C@@H](C)O)C(=O)N[C@@H](C)C(=O)N[C@@H](CC(C)C)C(=O)N[C@@H](CC(=O)O)C(=O)N[C@@H](CCC(=O)O)C(=O)N[C@@H](CCCCNC(=O)COCCOCCNC(=O)COCCOCCNC(=O)CC[C@H](NC(=O)CCCCCCCCCCCCCCCCCCC(=O)O)C(=O)O)C(=O)N[C@@H](C)C(=O)N[C@@H](CCC(N)=O)C(=O)N[C@@H](CCCNC(=N)N)C(=O)N[C@@H](C)C(=O)N[C@@H](Cc1ccccc1)C(=O)N[C@H](C(=O)N[C@@H](CCC(=O)O)C(=O)N[C@@H](Cc1c[nH]c2ccccc12)C(=O)N[C@@H](CC(C)C)C(=O)N[C@@H](CC(C)C)C(=O)N[C@@H](C)C(=O)N[C@@H](CCC(N)=O)C(=O)NCC(=O)N1CCC[C@H]1C(=O)N[C@@H](CO)C(=O)N[C@@H](CO)C(=O)NCC(=O)N[C@@H](C)C(=O)N1CCC[C@H]1C(=O)N1CCC[C@H]1C(=O)N1CCC[C@H]1C(=O)N[C@@H](CO)C(N)=O)C(C)C` [Compound 43] (H-Y[Aib]EGTFTSDYSIALDEK([AEEA-AEEA-γGlu-C20 diacid])AQRAFVEWLLAQGPSSGAPPPS-NH2), the EC50 was determined as 5 pM in assay [1] and 16 pM in assay [2].
Consider `CC[C@H](C)[C@H](NC(=O)[C@H](CO)NC(=O)[C@H](Cc1ccc(O)cc1)NC(=O)[C@H](CC(=O)O)NC(=O)[C@H](CO)NC(=O)[C@@H](NC(=O)[C@H](Cc1ccccc1)NC(=O)[C@@H](NC(=O)CNC(=O)[C@H](CCC(=O)O)NC(=O)C(C)(C)NC(=O)[C@@H](N)Cc1ccc(O)cc1)[C@@H](C)O)[C@@H](C)O)C(=O)N[C@@H](C)C(=O)N[C@@H](CC(C)C)C(=O)N[C@@H](CC(=O)O)C(=O)N[C@@H](CCC(=O)O)C(=O)N[C@@H](CCCCNC(=O)COCCOCCNC(=O)COCCOCCNC(=O)CC[C@H](NC(=O)CCCCCCCCCCCCCCCCCCC(=O)O)C(=O)O)C(=O)N[C@@H](C)C(=O)N[C@@H](CCC(N)=O)C(=O)N[C@@H](CCCNC(=N)N)C(=O)N[C@@H](C)C(=O)N[C@@H](Cc1ccccc1)C(=O)N[C@H](C(=O)N[C@@H](CCC(=O)O)C(=O)N[C@@H](Cc1c[nH]c2ccccc12)C(=O)N[C@@H](CC(C)C)C(=O)N[C@@H](CC(C)C)C(=O)N[C@@H](C)C(=O)N[C@@H](C)C(=O)NCC(=O)N1CCC[C@H]1C(=O)N[C@@H](CO)C(=O)N[C@@H](CO)C(=O)NCC(=O)N[C@@H](C)C(=O)N1CCC[C@H]1C(=O)N1CCC[C@H]1C(=O)N1CCC[C@H]1C(=O)N[C@@H](CO)C(N)=O)C(C)C` [Compound 44] (H-Y[Aib]EGTFTSDYSIALDEK([AEEA-AEEA-γGlu-C20 diacid])AQRAFVEWLLAAGPSSGAPPPS-NH2), for which the EC50 in assay [1] amounted to 7 pM; in assay [2] it was 15 pM.
As for `CC[C@H](C)[C@H](NC(=O)[C@H](CO)NC(=O)[C@H](Cc1ccc(O)cc1)NC(=O)[C@H](CC(=O)O)NC(=O)[C@H](CO)NC(=O)[C@@H](NC(=O)[C@H](Cc1ccccc1)NC(=O)[C@@H](NC(=O)CNC(=O)[C@H](CCC(=O)O)NC(=O)C(C)(C)NC(=O)[C@@H](N)Cc1ccc(O)cc1)[C@@H](C)O)[C@@H](C)O)C(=O)N[C@@H](C)C(=O)N[C@@H](CC(C)C)C(=O)N[C@@H](CC(=O)O)C(=O)N[C@@H](CCCCN)C(=O)N[C@@H](CCCCNC(=O)COCCOCCNC(=O)COCCOCCNC(=O)CC[C@H](NC(=O)CCCCCCCCCCCCCCCCCCC(=O)O)C(=O)O)C(=O)N[C@@H](C)C(=O)N[C@@H](CCC(N)=O)C(=O)N[C@@H](CCCCN)C(=O)N[C@@H](C)C(=O)N[C@@H](Cc1ccccc1)C(=O)N[C@H](C(=O)N[C@@H](CCC(=O)O)C(=O)N[C@@H](Cc1c[nH]c2ccccc12)C(=O)N[C@@H](CC(C)C)C(=O)N[C@@H](CC(C)C)C(=O)N[C@@H](C)C(=O)N[C@@H](C)C(=O)NCC(=O)N1CCC[C@H]1C(=O)N[C@@H](CO)C(=O)N[C@@H](CO)C(=O)NCC(=O)N[C@@H](C)C(=O)N1CCC[C@H]1C(=O)N1CCC[C@H]1C(=O)N1CCC[C@H]1C(=O)N[C@@H](CO)C(N)=O)C(C)C` [Compound 45] (H-Y[Aib]EGTFTSDYSIALDKK([AEEA-AEEA-γGlu-C20 diacid])AQKAFVEWLLAAGPSSGAPPPS-NH2), the half-maximal effective concentration (EC50) worked out at 5 pM in assay [1] and 24 pM in assay [2].
The matching figures for `CC[C@H](C)[C@H](NC(=O)[C@H](CO)NC(=O)[C@H](Cc1ccc(O)cc1)NC(=O)[C@H](CC(=O)O)NC(=O)[C@H](CO)NC(=O)[C@@H](NC(=O)[C@H](Cc1ccccc1)NC(=O)[C@@H](NC(=O)CNC(=O)[C@H](CCC(=O)O)NC(=O)C(C)(C)NC(=O)[C@@H](N)Cc1ccc(O)cc1)[C@@H](C)O)[C@@H](C)O)C(=O)N[C@@H](Cc1ccc(O)cc1)C(=O)N[C@@H](CC(C)C)C(=O)N[C@@H](CC(=O)O)C(=O)N[C@@H](CCCCN)C(=O)N[C@@H](CCCCNC(=O)COCCOCCNC(=O)COCCOCCNC(=O)CC[C@H](NC(=O)CCCCCCCCCCCCCCCCCCC(=O)O)C(=O)O)C(=O)N[C@@H](C)C(=O)N[C@@H](CCC(N)=O)C(=O)N[C@@H](CCCNC(=N)N)C(=O)N[C@@H](CCC(=O)O)C(=O)N[C@@H](Cc1ccccc1)C(=O)N[C@H](C(=O)N[C@@H](CCC(=O)O)C(=O)N[C@@H](Cc1c[nH]c2ccccc12)C(=O)N[C@@H](CC(C)C)C(=O)N[C@@H](CC(C)C)C(=O)N[C@@H](C)C(=O)N[C@@H](CCC(N)=O)C(=O)NCC(=O)N1CCC[C@H]1C(=O)N[C@@H](CO)C(=O)N[C@@H](CO)C(=O)NCC(=O)N[C@@H](C)C(=O)N1CCC[C@H]1C(=O)N1CCC[C@H]1C(=O)N1CCC[C@H]1C(=O)N[C@@H](CO)C(N)=O)C(C)C` [Compound 46] (H-Y[Aib]EGTFTSDYSIYLDKK([AEEA-AEEA-γGlu-C20 diacid])AQREFVEWLLAQGPSSGAPPPS-NH2): 6 pM and 10 pM.
On to `CC[C@H](C)[C@H](NC(=O)[C@H](CO)NC(=O)[C@H](Cc1ccc(O)cc1)NC(=O)[C@H](CC(=O)O)NC(=O)[C@H](CO)NC(=O)[C@@H](NC(=O)[C@H](Cc1ccccc1)NC(=O)[C@@H](NC(=O)CNC(=O)[C@H](CCC(=O)O)NC(=O)C(C)(C)NC(=O)[C@@H](N)Cc1ccc(O)cc1)[C@@H](C)O)[C@@H](C)O)C(=O)N[C@@H](C)C(=O)N[C@@H](CC(C)C)C(=O)N[C@@H](CC(=O)O)C(=O)N[C@@H](CCCCN)C(=O)N[C@@H](CCCCNC(=O)COCCOCCNC(=O)COCCOCCNC(=O)CC[C@H](NC(=O)CCCCCCCCCCCCCCCCCCC(=O)O)C(=O)O)C(=O)N[C@@H](C)C(=O)N[C@@H](CCC(N)=O)C(=O)N[C@@H](CCCNC(=N)N)C(=O)N[C@@H](CCC(=O)O)C(=O)N[C@@H](Cc1ccccc1)C(=O)N[C@H](C(=O)N[C@@H](CCC(=O)O)C(=O)N[C@@H](Cc1c[nH]c2ccccc12)C(=O)N[C@@H](CC(C)C)C(=O)N[C@@H](CC(C)C)C(=O)N[C@@H](C)C(=O)N[C@@H](CCC(N)=O)C(=O)NCC(=O)N1CCC[C@H]1C(=O)N[C@@H](CO)C(=O)N[C@@H](CO)C(=O)NCC(=O)N[C@@H](C)C(=O)N1CCC[C@H]1C(=O)N1CCC[C@H]1C(=O)N1CCC[C@H]1C(=O)N[C@@H](CO)C(N)=O)C(C)C` [Compound 47] (H-Y[Aib]EGTFTSDYSIALDKK([AEEA-AEEA-γGlu-C20 diacid])AQREFVEWLLAQGPSSGAPPPS-NH2), for which the EC50 in assay [1] amounted to 5 pM; in assay [2] it was 16 pM.
